What is called EC50 is the concentration giving half of the maximal effect.

This is an account of results in patent publication US20070259965A1, “Acyclic 1,3-Diamine And Uses Therefor” (SmithKline Beecham Corporation, priority 2004, published 2007).

The structures appear in SMILES notation.

The target of one assay is T1, TRPV4 channel receptors (Bos taurus, UniProt A0A8F4X677).
T1 construct: obtained using this method in bovine articular chondrocytes; endogenous in cells; host or cells: bovine articular chondrocytes (primary)
Briefly: Ca2+ influx by Fura-2 fluorescence on a FlexStation in bovine articular chondrocytes. It is filed as cell-based. To be noted: Fura-2, FlexStation. An excerpt:
Ca^2+influx mediated through TRPV4 channel receptors can be measured using articular chondrocytes from such species as, but not limited to, human, rat, canine, rabbit, monkey, and bovine, using standard techniques in the art such as, but not limited to, Fura-2 (Invitrogen/Molecular Probes, Eugene, Oreg.) fluorescence using a FlexStation (manufactured by Molecular Devices, Sunnyvale, Calif.). Table 1 lists biological data for several representative compounds obtained using this method in bovine articular chondrocytes.

For a further assay, the target named is T2, TRPV4 channel receptor (Homo sapiens, UniProt Q9HBA0).
T2 construct: expressed in transfected cells; host or cells: HEK cells
The assay can be described thus: FLIPR assay using TRPV4 expressing HEK cells. In kind it is cell-based. To be noted: FLIPR method; pEC50 = −log10(EC50 μM). An excerpt:
Other techniques used to measure TRPV4 channel receptor activation in chondrocytes include, but are not limited to: FLIPR assay, measuring a compound's capability to reduce the amount of ADAMTSs produced and/or released in response to a catabolic stimulus by a cell comprising a TRPV4 channel receptor; measuring a compound's capability to reduce the amount of MMPs produced and/or released in response to a catabolic stimulus by a cell comprising a TRPV4 channel receptor; measuring a compound's capability to effect the amount of nitric oxide (NO) produced in response to a catabolic stimulus by a cell comprising a TRPV4 channel receptor; and measuring a compound's capability to attenuate the inhibition of matrix synthesis in response to a catabolic stimulus by a cell comprising a TRPV4 channel receptor .
All exemplary compounds of the present invention were assessed using at least one of the biological assays presented above. Compounds presented in the Examples had pEC50 values between about 4.5 to about 7.0 as measured by Flex Station in using bovine articular cartilage and EC50 values of about 0.1 μM to about 30 μM as measured by FLIPR assay using TRPV4 expressing HEK cells.

T2 sequence (Q9HBA0 whole entry): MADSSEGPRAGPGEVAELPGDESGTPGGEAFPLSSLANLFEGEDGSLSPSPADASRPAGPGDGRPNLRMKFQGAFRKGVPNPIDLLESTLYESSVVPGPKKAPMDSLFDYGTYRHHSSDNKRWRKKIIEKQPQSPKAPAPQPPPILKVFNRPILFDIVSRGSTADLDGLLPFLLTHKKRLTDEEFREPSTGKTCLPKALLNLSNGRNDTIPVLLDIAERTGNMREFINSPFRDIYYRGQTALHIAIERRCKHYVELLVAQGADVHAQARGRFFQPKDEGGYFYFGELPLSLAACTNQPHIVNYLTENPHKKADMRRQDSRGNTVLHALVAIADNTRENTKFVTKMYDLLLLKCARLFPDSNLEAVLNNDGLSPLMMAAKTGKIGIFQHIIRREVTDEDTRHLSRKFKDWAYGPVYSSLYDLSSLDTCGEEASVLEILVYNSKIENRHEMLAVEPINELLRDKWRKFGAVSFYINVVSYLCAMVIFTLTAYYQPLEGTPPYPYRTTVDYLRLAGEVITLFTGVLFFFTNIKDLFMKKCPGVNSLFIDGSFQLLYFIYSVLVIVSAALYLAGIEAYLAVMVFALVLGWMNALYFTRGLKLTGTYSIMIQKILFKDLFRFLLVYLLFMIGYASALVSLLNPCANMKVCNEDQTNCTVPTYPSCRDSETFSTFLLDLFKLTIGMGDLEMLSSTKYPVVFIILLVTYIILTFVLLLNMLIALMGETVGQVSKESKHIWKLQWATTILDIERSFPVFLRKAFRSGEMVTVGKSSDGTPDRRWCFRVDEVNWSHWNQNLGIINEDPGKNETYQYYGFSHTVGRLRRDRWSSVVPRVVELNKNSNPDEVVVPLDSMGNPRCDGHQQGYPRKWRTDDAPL
T1 sequence (A0A8F4X677 1-871): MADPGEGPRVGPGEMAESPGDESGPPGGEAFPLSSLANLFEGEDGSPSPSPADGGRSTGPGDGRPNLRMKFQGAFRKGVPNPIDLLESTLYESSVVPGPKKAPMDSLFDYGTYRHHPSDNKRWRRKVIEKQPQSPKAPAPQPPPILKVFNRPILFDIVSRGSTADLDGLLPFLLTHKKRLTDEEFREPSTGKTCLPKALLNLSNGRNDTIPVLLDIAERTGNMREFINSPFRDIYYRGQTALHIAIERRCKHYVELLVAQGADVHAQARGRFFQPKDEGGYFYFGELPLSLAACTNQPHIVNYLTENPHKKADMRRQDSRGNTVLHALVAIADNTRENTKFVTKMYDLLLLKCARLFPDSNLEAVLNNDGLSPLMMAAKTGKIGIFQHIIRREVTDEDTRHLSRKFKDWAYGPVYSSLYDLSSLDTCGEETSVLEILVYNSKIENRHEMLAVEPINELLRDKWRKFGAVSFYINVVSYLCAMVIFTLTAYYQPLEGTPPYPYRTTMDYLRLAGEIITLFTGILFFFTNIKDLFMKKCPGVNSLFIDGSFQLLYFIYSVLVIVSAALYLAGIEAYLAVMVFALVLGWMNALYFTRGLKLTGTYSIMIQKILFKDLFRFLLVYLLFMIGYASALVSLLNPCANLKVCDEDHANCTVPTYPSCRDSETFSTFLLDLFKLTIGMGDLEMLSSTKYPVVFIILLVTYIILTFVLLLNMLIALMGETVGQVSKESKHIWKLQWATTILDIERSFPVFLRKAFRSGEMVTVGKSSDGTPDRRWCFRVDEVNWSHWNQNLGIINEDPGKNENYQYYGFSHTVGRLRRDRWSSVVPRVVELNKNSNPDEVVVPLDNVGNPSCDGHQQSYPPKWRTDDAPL

With `CC(C)C[C@H](NC(=O)c1cc2ccccc2s1)C(=O)NCCCN(C)S(=O)(=O)c1ccc(F)cc1Cl` [Example 6, N-{(1S)-1-[({3-[[(2-chloro-4-fluorophenyl)sulfonyl](methyl)amino]propyl}amino)carbonyl]-3-methylbutyl}-1-benzothiophene-2-carboxamide], the EC50 is 0.14 to 1 µM on TRPV4 channel receptors and 0.1 to 0.794 µM at TRPV4 channel receptor. With `CC(C)C[C@H](NC(=O)c1cc2ccccc2s1)C(=O)NCCCN(C)S(=O)(=O)c1sccc1C#N` [Example 13, N-{(1S)-1-[({3-[[(3-cyano-2-thienyl)sulfonyl](methyl)amino]propyl}amino)carbonyl]-3-methylbutyl}-1-benzothiophene-2-carboxamide], the EC50 on TRPV4 channel receptors was 1.01 to 10 µM.

As for `CC(C)C[C@H](NC(=O)c1cc2ccccc2s1)C(=O)NCCCN(C)S(=O)(=O)c1c(Cl)cc(Cl)cc1Cl` [Example 17, N-((1S)-3-methyl-1-{[(3-{methyl[(2,4,6-trichlorophenyl)sulfonyl]amino}propyl)amino]carbonyl}butyl)-1-benzothiophene-2-carboxamide], the EC50 at TRPV4 channel receptor was 1 to 7.94 µM. On TRPV4 channel receptor, `CC(C)C[C@H](NC(=O)c1cn2nc(Cl)ccc2n1)C(=O)NCCCN(C)S(=O)(=O)c1ccccc1C#N` [Example 71, 6-chloro-N-{(1S)-1-[({3-[[(2-cyanophenyl)sulfonyl](methyl)amino]propyl}amino)carbonyl]-3-methylbutyl}imidazo[1,2-b]pyridazine-2-carboxamide] had an EC50 of 10 to 20 µM. `Cc1c(C(=O)N[C@@H](CC(C)C)C(=O)NCCCN(C)S(=O)(=O)c2ccccc2C#N)oc2cccnc12` [Example 73, N-{(1S)-1-[({3-[[(2-cyanophenyl)sulfonyl](methyl)amino]propyl}amino)carbonyl]-3-methylbutyl}-3-methylfuro[3,2-b]pyridine-2-carboxamide]: the EC50 at TRPV4 channel receptors fell in the range of 10 to 30 µM.
